Reference: patent US10233186B2, “Inhibitors of activin receptor-like kinase” (BLUEPRINT MEDICINES CORPORATION, priority 2016, dated 2019)

Columns and labels:
[1] = target: T1, human ALK2 R206H (Homo sapiens, UniProt Q04771, R206H); assay: Cell-based ALK2-R206H cell activity assay (Smad1-Ser463/Ser465 phosphorylation by AlphaLISA in HEK293-ALK2-R206H cells); conditions: read-out: Cell Line (Cell Assay IC50)
T1 construct: expressed in transfected cells; host or cells: HEK293 (ATCC CRL1573), lentivirus transduction, blasticidin selection
T1 sequence (Q04771 21-509 R206H): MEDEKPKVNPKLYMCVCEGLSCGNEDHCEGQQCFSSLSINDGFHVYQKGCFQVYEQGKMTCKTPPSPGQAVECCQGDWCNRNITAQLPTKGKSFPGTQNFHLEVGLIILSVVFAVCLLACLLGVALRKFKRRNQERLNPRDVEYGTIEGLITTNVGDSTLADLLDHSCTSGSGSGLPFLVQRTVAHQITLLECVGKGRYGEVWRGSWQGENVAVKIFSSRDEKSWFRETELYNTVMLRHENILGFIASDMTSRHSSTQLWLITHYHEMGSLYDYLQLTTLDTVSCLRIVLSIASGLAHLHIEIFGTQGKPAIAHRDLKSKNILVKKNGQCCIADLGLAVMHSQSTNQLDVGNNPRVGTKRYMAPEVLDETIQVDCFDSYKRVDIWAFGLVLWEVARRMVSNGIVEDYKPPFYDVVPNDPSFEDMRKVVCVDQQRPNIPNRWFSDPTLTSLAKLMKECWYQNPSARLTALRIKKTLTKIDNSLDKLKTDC
In short: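 Stable HEK293 cells expressing C-terminally FLAG-tagged human ALK2 R206H (lentiviral, blasticidin-selected) were treated with compounds in 10-point, 3-fold dilutions from 10 μM or 1 μM top, in duplicate. Smad1 Ser463/Ser465 phosphorylation was read by AlphaLISA.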

[2] = target: T2, ALK2 R206H (GST-tagged mutant ALK2) (Homo sapiens, UniProt Q04771, R206H); assay: ALK binding assay (LANTHASCREEN TR-FRET competitive binding, displacement of Kinase Tracer 178); conditions: ALK2 R206H, LANTHASCREEN TR-FRET competitive binding; read-out: Binding Assay (IC50)
T2 construct: purchased Carna Bioscience or ThermoFisher 09-148 or PV6232
T2 sequence (Q04771 21-509 R206H): T1 sequence (Q04771 21-509 R206H)

| Compound | IC50 [1] [nM] | IC50 [2] [nM] |
| --- | --- | --- |
| CC(C)NC(=O)N1CCN(c2ccnn3cc(-c4ccc(C5COCCN5C(C)C)cc4)cc23)CC1 (stereo not drawn) [Compound 594] | < 100 | < 10 |
| COC1(c2ccc(-c3cc4c(N5CCN(C(=O)OC6COC6)CC5)ccnn4c3)cc2)CCNCC1 [Compound 599] | < 100 | < 10 |
| CO[C@@]1(c2ccc(-c3cc4c(N5CCN(C(=O)OC6COC6)CC5)ccnn4c3)cc2)CCCNC1 [Compound 600] | < 100 | < 10 |
| CO[C@]1(c2ccc(-c3cc4c(N5CCN(C(=O)OC6COC6)CC5)ccnn4c3)cc2)CCCNC1 [Compound 601] | < 100 | < 10 |
| CC(C)N1CCC(C#N)(c2ccc(-c3cc4c(N5CCN(C(=O)C6CC6)CC5)ccnn4c3)cc2)CC1 [Compound 615] | < 100 | < 10 |
| CC(C)N1CC(O)(c2ccc(-c3cc4c(N5CCN(C(=O)C6CC(C#N)C6)CC5)ccnn4c3)cc2)C1 (stereo not drawn) [Compound 616] | < 100 | < 10 |
| CC(C)N1CCC[C@@H](c2ccc(-c3cc4c(N5CCN(C(=O)NCCC#N)CC5)ccnn4c3)cc2)C1 [Compound 617] | 100 to 500 | < 10 |
| CC(C)N1CCC[C@H](c2ccc(-c3cc4c(N5CCN(C(=O)NCCC#N)CC5)ccnn4c3)cc2)C1 [Compound 618] | < 100 | < 10 |
| CC(C)N1CCC(c2ccc(-c3cc4c(N5CCN(C(=O)OC6CCC6)CC5)ccnn4c3)cc2)CC1 [Compound 621] | 100 to 500 | < 10 |
| COC(=O)NC1(c2ccc(-c3cc4c(N5CCN(C(=O)C6CC6)CC5)ccnn4c3)cc2)CCNCC1 [Compound 622] | > 500 | < 10 |
| CC(C)N1CC2(CN(c3ccc(-c4cc5c(N6CCN(C(=O)[C@H]7C[C@@H]7F)CC6)ccnn5c4)cc3)C2)C1 [Compound 623] | 100 to 500 | < 10 |
| COC1(c2ccc(-c3cc4c(N5CCN(C(=O)C6CC6)CC5)ccnn4c3)nc2)CCN(C(C)C)CC1 [Compound 624] | < 100 | < 10 |
| CC(C)N1CCC(c2ccc(-c3cc4c(N5CCN(C(=O)NC6COC6)CC5)ccnn4c3)cc2)CC1 [Compound 627] | < 100 | < 10 |
| CC(C)NC(=O)N1CCN(c2ccnn3cc(-c4ccc(C5(C)CCN(C(C)C)CC5)cc4)cc23)CC1 [Compound 628] | < 100 | < 10 |
| CC(C)N1CCC(c2ccc(-c3cc4c(N5CCN(C(=O)OC6COC6)CC5)ccnn4c3)cc2)CC1 [Compound 629] | < 100 | < 10 |
| CC(C)N1CCC[C@H](c2ccc(-c3cc4c(N5CCN(C(=O)OC6COC6)CC5)ccnn4c3)cc2)C1 [Compound 630] | < 100 | < 10 |
| CC(C)N1CCC[C@@H](c2ccc(-c3cc4c(N5CCN(C(=O)OC6COC6)CC5)ccnn4c3)cc2)C1 [Compound 631, (S)-oxetan-3-yl 4-(6-(4-(1-isopropylpiperidin-3-yl)phenyl)pyrrolo[1,2-b]pyridazin-4-yl)piperazine-1-carboxylate] | < 100 | < 10 |
| CC(C)N1CCC(c2ccc(-c3cc4c(N5CCN(C(=O)OC(C)(C)C)CC5)ccnn4c3)cc2)CC1 [Compound 632] | 100 to 500 | < 10 |
| CCOC(=O)N1CCN(c2ccnn3cc(-c4ccc(C5(OC)CCN(C(C)C)CC5)cc4)cc23)CC1 [Compound 643] | < 100 | < 10 |
| CCNC(=O)N1CCN(c2ccnn3cc(-c4ccc(C5(OC)CCN(C(C)C)CC5)cn4)cc23)CC1 [Compound 644] | < 100 | < 10 |

The next lines start with the values.

| IC50 [1] [nM] | IC50 [2] [nM] | Compound |
| --- | --- | --- |
| < 100 | < 10 | CC(C)NC(=O)N1CCN(c2ccnn3cc(-c4ccc([C@@H]5CCCN(C(C)C)C5)cn4)cc23)CC1 [Compound 588] |
| < 100 | < 10 | CC(C)NC(=O)N1CCN(c2ccnn3cc(-c4ccc([C@H]5CCCN(C(C)C)C5)cn4)cc23)CC1 [Compound 589] |
| < 100 | < 10 | CCNC(=O)N1CCN(c2ccnn3cc(-c4ccc([C@]5(O)CCCN(C(C)C)C5)cc4)cc23)CC1 [Compound 591] |
| < 100 | < 10 | CCNC(=O)N1CCN(c2ccnn3cc(-c4ccc([C@@]5(O)CCCN(C(C)C)C5)cc4)cc23)CC1 [Compound 592] |
| < 100 | < 10 | COC1(c2ccc(-c3cc4c(N5CCN(C(=O)NC(C)C)CC5)ccnn4c3)cc2)CN(C(C)C)C1 [Compound 593] |
| < 100 | < 10 | CC(C)NC(=O)N1CCN(c2ccnn3cc(-c4ccc([C@@]5(O)CCN(C(C)C)C5)cc4)cc23)CC1 [Compound 595] |
| 100 to 500 | < 10 | CC(C)NC(=O)N1CCN(c2ccnn3cc(-c4ccc([C@]5(O)CCN(C(C)C)C5)cc4)cc23)CC1 [Compound 596] |
| < 100 | < 10 | CCOC(=O)N1CCN(c2ccnn3cc(-c4ccc([C@@]5(C)CN(C(C)C)CCN5)cc4)cc23)CC1 [Compound 597] |
| < 100 | < 10 | CCOC(=O)N1CCN(c2ccnn3cc(-c4ccc([C@]5(C)CN(C(C)C)CCN5)cc4)cc23)CC1 [Compound 598] |
| < 100 | < 10 | CCOC(=O)N1CCN(c2ccnn3cc(-c4ccc([C@@]5(OC)CCN(C(C)C)C5)cc4)cc23)CC1 [Compound 603] |
| < 100 | < 10 | CCOC(=O)N1CCN(c2ccnn3cc(-c4ccc([C@]5(OC)CCN(C(C)C)C5)cc4)cc23)CC1 [Compound 604] |
| < 100 | < 10 | CCNC(=O)N1CCN(c2ccnn3cc(-c4ccc([C@]5(O)CCCN(C(C)C)C5)cn4)cc23)CC1 [Compound 605] |
| < 100 | < 10 | CCNC(=O)N1CCN(c2ccnn3cc(-c4ccc([C@@]5(O)CCCN(C(C)C)C5)cn4)cc23)CC1 [Compound 606] |
| 100 to 500 | < 10 | CC(C)NC(=O)N1CCN(c2ccnn3cc(-c4ccc([C@@]5(O)CCN(C(C)C)C5)cn4)cc23)CC1 [Compound 608] |
| < 100 | < 10 | COC1(c2ccc(-c3cc4c(N5CCN(C(=O)OC6COC6)CC5)ccnn4c3)nc2)CCNCC1 [Compound 609] |
| < 100 | < 10 | CCOC(=O)N1CCN(c2ccnn3cc(-c4ccc([C@]5(F)CCCN(C(C)C)C5)cc4)cc23)CC1 [Compound 610] |

| IC50 [1] [nM] | IC50 [2] [nM] | Compound |
| --- | --- | --- |
| < 100 | < 10 | CCOC(=O)N1CCN(c2ccnn3cc(-c4ccc([C@@]5(F)CCCN(C(C)C)C5)cc4)cc23)CC1 [Compound 611] |
| < 100 | < 10 | CCOC(=O)N1CCN(c2ccnn3cc(-c4ccc([C@]5(F)CCCN(C(C)C)C5)cn4)cc23)CC1 [Compound 613] |
| < 100 | < 10 | CCOC(=O)N1CCN(c2ccnn3cc(-c4ccc([C@@]5(F)CCCN(C(C)C)C5)cn4)cc23)CC1 [Compound 614] |
| < 100 | < 10 | CC(C)N1CCN(C)[C@](C)(c2ccc(-c3cc4c(N5CCN(C(=O)C6CC6)CC5)ccnn4c3)cc2)C1 [Compound 619] |
| < 100 | < 10 | CC(C)N1CCN(C)[C@@](C)(c2ccc(-c3cc4c(N5CCN(C(=O)C6CC6)CC5)ccnn4c3)cc2)C1 [Compound 620] |
| < 100 | < 10 | CO[C@@]1(c2ccc(-c3cc4c(N5CCN(C(=O)C6CC6)CC5)ccnn4c3)nc2)CCCN(C(C)C)C1 [Compound 625] |
| < 100 | < 10 | CO[C@]1(c2ccc(-c3cc4c(N5CCN(C(=O)C6CC6)CC5)ccnn4c3)nc2)CCCN(C(C)C)C1 [Compound 626] |
| < 100 | < 10 | CC(C)NC(=O)N1CCN(c2ccnn3cc(-c4ccc([C@@]5(C)CN(C(C)C)CCN5)cc4)cc23)CC1 [Compound 633] |
| < 100 | < 10 | CC(C)NC(=O)N1CCN(c2ccnn3cc(-c4ccc([C@]5(C)CN(C(C)C)CCN5)cc4)cc23)CC1 [Compound 634] |
| < 100 | < 10 | CC(C)N1CCC[C@@H](c2ccc(-c3cc4c(N5CCN(C(=O)OC6COC6)CC5)ccnn4c3)nc2)C1 [Compound 635] |
| < 100 | < 10 | CC(C)N1CCC[C@H](c2ccc(-c3cc4c(N5CCN(C(=O)OC6COC6)CC5)ccnn4c3)nc2)C1 [Compound 636] |
| < 100 | < 10 | CO[C@]1(c2ccc(-c3cc4c(N5CCN(C(=O)NC(C)C)CC5)ccnn4c3)cc2)CCN(C(C)C)C1 [Compound 637] |
| < 100 | < 10 | CO[C@@]1(c2ccc(-c3cc4c(N5CCN(C(=O)NC(C)C)CC5)ccnn4c3)cc2)CCN(C(C)C)C1 [Compound 638] |
| < 100 | < 10 | CCOC(=O)N1CCN(c2ccnn3cc(-c4ccc([C@]5(C)CN(C(C)C)CCN5C)cc4)cc23)CC1 [Compound 641] |
| < 100 | < 10 | CCOC(=O)N1CCN(c2ccnn3cc(-c4ccc([C@@]5(C)CN(C(C)C)CCN5C)cc4)cc23)CC1 [Compound 642] |
